Assays:
[1] = test system: hSIRT1 promoter; test: Enhancing the hSIRT1 promoter: EGFP fluorescence intensity in HaCaT-hSIRT1p-EGFP cells by flow cytometry; type: cell-based, human; conditions: 10 μM in DMSO, 24 hours after addition, FIG. 4
Experimental: HaCaT cells (human epidermis keratinocyte-derived cell lines, provided by Dr. Takumi Miura, National Center for Child Health and Development) were cultured using a Dalbecco's Modified Eagle Medium (DMEM) medium (Nissui Pharmaceutical Co., Ltd, Tokyo) supplemented with 10% FBS, 100,000 U/L penicillin (Meiji, Tokyo), 100 mg/L streptomycin (Meiji), and 2.0 g/L NaHCO3. These cells were subcultured at 37° C. in the presence of 5% CO2.
HaCaT cell lines (HaCaT-hSIRT1p-EGFP cells) into which the vector (phSIRT1-EGFP) described in Reference Example 1 was integrated were prepared as below.
The HaCaT cells were disseminated at 9.0×10^5 in a φ60-mm dish, and were cultured in 10% FBS supplemented DMEM medium. Cells as a control were prepared in a similar manner. After 24 hours, 8 μg of phSIRT1p-EGFP was added to and mixed with 300 μL of DMEM medium, 24 μL of Hilymax (manufactured by Dojindo Laboratories), which is a transfection reagent, was further added and mixed therewith, and the mixture was incubated for 15 minutes at room temperature. Subsequently, the total amount was added to the HaCaT cells. After 3 hours, the medium was replaced by 10% FBS supplemented DMEM medium.
At 24 hours after the gene introduction, the medium was replaced by 10% FBS supplemented DMEM medium containing 750 μg/mL of G418 (Wako Pure Chemical Industries, Ltd.). After visually confirming under a microscope that all the control non-treated HaCaT cells were killed, the subculture was continued using 10% FBS supplemented DMEM containing 150 μg/mL of G418.
It was confirmed with flow cytometry that the phSIRT1p-EGFP vector was reliably transferred inro the cells after the subculture. The above-described cells and the control non-treated HaCaT cells were plated at 7.0×10^5 per a φ60-mm dish, respectively. After 24 hours, the cells were picked up and well suspended in 2 mL of 5% FBS supplemented DMEM medium, and were filtered through a Nylon Mesh (Kyoshin Rikoh Inc., Japan), and the EGFP fluorescence intensity thereof was measured with a Flow Cytometer (EPICS, BeckmanCoulter). The analysis was performed using software FlowJo (Tree Star, Ashland Oreg.), so that the EGFP fluorescence intensity of each cell was represented as a histogram.
HaCaT-hSIRT1p-EGFP cells were plated at 1.7×10^6 cells in a φ60-mm dish (as measured by flow cytometry) or at 2.0×10^4 cells/well in a 96-well plate (as measured by an IN Cell Analyzer 1000). After 24 hours, 10 μM of each polyphenol or terpenoid dissolved in DMSO (Wako Pure Chemical Industries, Ltd.) was added thereto. Note that as a negative control, the same amount of DMSO was added without polyphenol or terpenoid, and as a positive control, 10 μM resveratrol was added. At 24 hours after the addition of the various polyphenols or terpenoids or the controls, the fluorescence intensity was measured by flow cytometry.

[2] = test system: sirtuin gene hSIRT1; test: Expression level of endogenous sirtuin gene hSIRT1 in Caco-2 cells (quantitative PCR, relative to β-actin); type: cell-based, human; conditions: 10 μM, 2 days, qPCR normalised to β-actin, FIG. 2
Experimental: Caco-2 cells were plated at 3.0×10^5 cells for a 5-mL dish. After 24 hours, each polyphenol was added to be 10 μM. Note that as a negative control, none of polyphenol nor terpenoid was added, and as a positive control, 10 μM resveratrol was added. At 2 days after this treatment, RNA was collected.
The total RNA was prepared using High Pure RNA Isolation Kit (manufactured by Roche, Indianapolis, Ind., USA). For the procedures from the total RNA preparation to the reverse transcription, the reagents and tools used were RNase-free. Cells were prepared in a sub-confluent to confluent condition in a cell culture dish (Greiner bio-one, Monroe, N.C., USA). The medium was completely removed, 200 μL of PBS, and 400 μL of cell lysis solution, which was contained in High Pure RNA Isolation Kit, were added, and the entire dish was well covered by the cell lysis solution. When the viscosity of the cell lysis solution was decreased, the cell lysis solution was collected into a 1.5-mL sample tube. The collected sample was well suspended. A filter tube and a collection tube, which were contained in High Pure RNA Isolation Kit, were assembled, and the sample was pipetted into a buffer reservoir in the upper portion of the filter tube, and was centrifuged at 8,000×g for 15 seconds. The flowthrough liquid into the collection tube was discarded, and the filter tube and the collection tube were again assembled. Then, 90 μL of DNase incubation buffer per sample was pipetted into a sterile reaction tube, and 10 μL of DNase I was added into the tube and mixed. The mixture liquid was pipetted into the buffer reservoir in the upper portion of the filter tube, was added on the glass fiber fleece in the filter tube, and was incubated at room temperature for 15 minutes. Then, 500 μL of wash buffer I, which was contained in High Pure RNA Isolation Kit, was added to the buffer reservoir in the upper portion of the filter tube, and was centrifuged at 8,000×g for 15 seconds. The flowthrough liquid into the collection tube was discarded, and the filter tube and the collection tube were again assembled. Then, 500 μL of wash buffer II was added to the buffer reservoir in the upper portion of the filter tube, and centrifugation was performed at 8,000×g for 15 seconds. The liquid discharged to the collection tube was discarded, and the filter tube and the collection tube were again assembled. Then, 200 μL of wash buffer II was added to the buffer reservoir in the upper portion of the filter tube, and centrifugation was performed at 13,000×g for 2 minutes, after which a remaining wash buffer in the filter tube was removed. The collection tube was discarded, the filter tube was inserted into a sterile reaction tube, and 50 μL of elution buffer was added in the filter tube, and centrifugation was performed at 8,000×g for 1 minute. The eluate obtained by the procedures was taken as an RNA solution. The concentration of RNA in the solution was calculated based on the light absorbance at 260 nm with a NanoDrop 2000/2000c spectrophotometer (Thermo Scientific, Waltham, Mass., USA), for use in subsequent experiments.
Then, 5 pmol of oligo(dT)20 primer was added to 1.0 μg of total RNA extracted from the cells, and sterile water was further added thereto so that the total liquid amount was 13 μL. Heat treatment was performed using a thermal cycler (Peltier Thermal Cycler PTC-200, MJ Research, Watertown, Mass., USA) at 65° C. for 5 minutes, and the resultant was immediately transferred in ice to quench it. During this treatment, the reverse transcriptase reaction program was advanced to the 42° C. stage and was temporarily stopped. A mixture solution obtained by mixing 4 μL of reverse transcriptase reaction buffer solution, 2 μL of 1 mM dNTPs (Amershan Pharmacia Biotech., Buckinghamshire, UK), and 0.5 μL of reverse transcriptase ReverTra Ace (TOYOBO, Osaka, Japan) per sample was added to and gently mixed with the sample on ice after 5 minutes. […]

Row | SMILES | EGFP fluorescence intensity (hSIRT1 promoter activity) [1] | relative gene expression level of hSIRT1 [2]
1 | O=C1OC[C@H]2OC(O)[C@H](O)[C@@H](O)[C@@H]2OC(=O)c2cc(O)c(O)c(O)c2-c2c(O)c(O)c3oc(=O)c4c(c(O)c(O)c5oc(=O)c2c3c54)-c2c1cc(O)c(O)c2O (mixture of isomers) [punicalin] | hSIRT1 expression effect on skin epidermis cells was seen | hSIRT1 transcription enhancing effect was observed
2 | C[C@@]12C=Cc3occc3[C@H]1CC[C@@]13C[C@@H](CC[C@H]12)[C@@](O)(CO)C3 [kahweol] | hSIRT1 expression effect on skin epidermis cells was seen | hSIRT1 transcription enhancing effect was observed
3 | O=c1oc2cc(O)ccc2c2ccc(O)cc12 [urolithin A] | hSIRT1 expression effect on skin epidermis cells was seen | hSIRT1 transcription enhancing effect was observed
4 | O=c1c(O)c(-c2ccc(O)c(O)c2)oc2cc(O)ccc12 [fisetin] | hSIRT1 expression effect on skin epidermis cells was seen | hSIRT1 transcription enhancing effect was observed
5 | O=C1O[C@H]2[C@@H]3OC(=O)c4cc(O)c(O)c(O)c4-c4c(O)c(O)c5oc(=O)c6c(c(O)c(O)c7oc(=O)c4c5c76)-c4c(cc(O)c(O)c4O)C(=O)OC[C@H]3OC(O)[C@@H]2OC(=O)c2cc(O)c(O)c(O)c2-c2c1cc(O)c(O)c2O (mixture of isomers) [punicalagin] | hSIRT1 expression effect on skin epidermis cells was seen | hSIRT1 transcription enhancing effect was observed

From patent publication US20170296568A1, “SIRTUIN GENE POTENTIATOR, AND PHARMACEUTICAL PRODUCT, COSMETIC PRODUCT, AND FOOD PRODUCT USING SAME” (MORISHITA JINTAN CO., LTD., priority 2012, published 2017)
